Values joined by “and” are separate entries in the source; they are usually repeats but may differ in a detail not shown here. Equal values may be shown once. Read-outs that look alike come from different tables or passages of the source.
Assays:
MCF-7 cells [1] = assay: Cell viability assay (MTT, DIC microscopy) at 20 μM; type: cell-based, human; set-up: key to Summary of cell viability activities (active/inactive): Y and N indicates active and inactive compounds respectively; Y and N indicates active and inactive compounds respectively; conditions: for Summary of cell viability activities (active/inactive): MCF-7 cells, 20 μM, 24-96 hrs, MTT; for effect on cell viability (in words): up to 96 hrs
Description: (A-F): MCF-7 cells were treated with 20 μM metallo-salens and incubated for varying time periods (24-96 hrs). Viable cells were quantified using MTT assay. The percent viable cells (relative to control, treated with equivalent amount of DMSO) were plotted as a function of time for each compound. This experiment was repeated twice with 8 replicate treatments each time. Bars indicates standard errors of mean (SEM). Curves 1-42 in FIGS. 2A-2F, represent the viability curves for compounds 1-42 respectively. (A′-F′) DIC images of the corresponding MCF-7 cells that were treated with DMSO (control panel), or with 20 μM Mn(III)- and Fe(III)-salen complexes for 72 hrs showing the visual effects on cellular morphology and growth/death.
Cell viability assay: Approximately 10,000 MCF-7 cells were seeded into each well of a 96 well micro titer plate and incubated 24 hrs in presence of 150 μL DMEM. An additional 50 μL DMEM containing required amount of each metallo-salen to obtain 20 μM final concentrations (in 200 μL final volume) in 8 replicate wells were added. Control wells were treated with equivalent amount of dimethylsulfoxide (DMSO). The viability of the cells was assayed at 24, 48, 72 and 96 hrs post treatment by using both microscopic observation and MTT assay. For microscopic observation cells were stained with trypan blue for at least 10 minute and observed under Differential Interference Contrast (DIC) setting of a fluorescence microscope (Nikon Eclipse TE2000-U, Japan). The MTT assay was performed as described previously^42. In brief, 20 μL MTT (5 mg/ml in PBS) was added into each wells and incubated for 2 hrs under normal growth condition to allow the viable cell to convert MTT to formazan. Then the media was discarded and formazan crystals were dissolved by adding 100 μL of DMSO and incubating 2 hrs with continuous shaking. The absorbance of the lysates were directly measured at 560 nm using a micro plate reader (Fluostar-omega, BMG Labtech). The absorbance values (which are proportional to the viable cell) are plotted as a function of time. The studies were repeated twice with 8 replicates each time.
The inventors studied the effect of Mn(III)-salen and Fe(III)-salen derivatives on the cell viability of cultured breast cancer cells MCF-7 in order to investigate the biochemical effects of the derivatives. The cells were incubated alone or with 20 μM of each of the metallo-salen derivatives separately (compounds 1-45) for varying time periods (0-96 hrs). The viable cells were quantified using MTT assay and the percent of cell survived (relative to the control untreated cells) were plotted against time (FIGS. 2A-2F).

MCF-7 cells [2] = assay: Cytotoxicity assay (IC50 measurement, MTT); type: cell-based, human; conditions: MCF-7, 96 hrs
Description: Cytotoxicity assay (IC50 measurement): The cytotoxicity of Fe(III)-salen and its derivatives was determined by using MTT assay as described previously^42. In brief, approximately 10,000 MCF-7 cells were seeded into each well of a 96 well micro titer plate and incubated 24 hrs in presence of 150 μL DMEM. An additional 50 μL DMEM containing required amount of each metallo-salen to obtain 0.05 to 60 μM final concentration (in 200 μL final volume) in 8 replicate wells were added. Control wells were treated with equivalent amount of DMSO. After 96 hrs of incubation, 20 μL of MTT (5 mg/mL) was added into each well and cell viability was assayed by measuring the formazan absorption at 560 nm as described above. The absorbance (at 560 nm) values were plotted against concentration of metallo-salens to determine the IC50. The studies were repeated twice with 8 replicates each time.
The concentration of the metal-complexes at which the conversion of MTT to formazan by viable cells is reduced by 50% compared to control cells is defined as the IC50. The percent of cell survival relative to the control cells were plotted as a function of concentration of the metallo-salen derivatives.

[3] = read-out: IC50 values for different complexes in MCF-7 cells
[4] = read-out: IC50 toward MCF-7 cells

| Compound | Summary of cell viability activities (active/inactive) (MCF-7 cells [1]) | IC50 (MCF-7 cells [2]; [3]) | effect on cell viability (in words) (MCF-7 cells [1]; MCF-7, 20 μM) | cells killed in less than 24 hrs (MCF-7 cells [1]; MCF-7, 20 μM, less than 24 hrs) | IC50 (MCF-7 cells [2]; [4]) |
| --- | --- | --- | --- | --- | --- |
| 5,5′-Dimethoxysalnaphen Fe(III) chloride [compound 42] | Y (42) | 1.24 µM | – | – | – |
| N.N.[Cl][Pt][Cl] [cis-platin, Cis-diaminodichloro-platinum(II), reference compound] | – | ~20 µM | – | – | – |
| CC(=O)[O-].[Mn+3].[O-]c1ccccc1C=NCCN=Cc1ccccc1[O-] [compound 1, Mn(III)-salen acetate] | Y^b (1) | 20.4 µM and 20.5 µM | – | – | – |
| CC(=O)[O-].[Mn+3].[O-]c1c(O)cccc1C=NCCN=Cc1cccc(O)c1[O-] [compound 2, 3,3′-Dihydroxysalen Mn(III) acetate] | Y (2) | 37 µM | – | – | – |
| CC(=O)[O-].[Mn+3].[O-]c1ccc(O)cc1C=NCCN=Cc1cc(O)ccc1[O-] [compound 4, 5,5′-Dihydroxysalen Mn(III) acetate] | Y (4) | 43.1 µM | effective in inducing cell death | – | – |
| CC(=O)[O-].COc1cccc(C=NCCN=Cc2cccc(OC)c2[O-])c1[O-].[Mn+3] [compound 5, 3,3′-Dimethoxysalen Mn(III) acetate] | Y (5) | 17.7 µM | – | – | – |
| CC(=O)[O-].COc1ccc([O-])c(C=NCCN=Cc2cc(OC)ccc2[O-])c1.[Mn+3] [compound 7, 5,5′-Dimethoxysalen Mn(III) acetate] | Y (7) | 16.1 µM | – | – | – |
| CC(=O)[O-].[Mn+3].[O-]c1ccccc1C=Nc1ccccc1N=Cc1ccccc1[O-] [compound 8, Mn(III)-salphen acetate] | Y (8) | 15 µM | – | – | – |
| CC(=O)[O-].[Mn+3].[O-]c1ccc(O)cc1C=Nc1ccccc1N=Cc1cc(O)ccc1[O-] [compound 11, 5,5′-Dihydroxysalphen Mn(III) acetate] | Y (11) | 45.6 µM | effective in inducing cell death | – | – |
| CC(=O)[O-].COc1cccc(C=Nc2ccccc2N=Cc2cccc(OC)c2[O-])c1[O-].[Mn+3] [compound 12, 3,3′-Dimethoxysalphen Mn(III) acetate] | Y (12) | 22.2 µM | – | – | – |
| CC(=O)[O-].COc1ccc(C=Nc2ccccc2N=Cc2ccc(OC)cc2[O-])c([O-])c1.[Mn+3] [compound 13, 4,4′-Dimethoxysalphen Mn(III) acetate] | Y (13) | 15.5 µM and 15.6 µM | most effective on inducing cell death | – | – |
| CC(=O)[O-].COc1ccc([O-])c(C=Nc2ccccc2N=Cc2cc(OC)ccc2[O-])c1.[Mn+3] [compound 14, 5,5′-Dimethoxysalphen Mn(III) acetate] | Y (14) | 55.9 µM | – | – | – |
| CC(=O)[O-].[Mn+3].[O-]c1ccccc1C=Nc1cc2ccccc2cc1N=Cc1ccccc1[O-] [compound 15, Mn(III)-salnaphen acetate] | Y (15) | 15.5 µM and 15.6 µM | most effective on inducing cell death | – | – |
| CC(=O)[O-].[Mn+3].[O-]c1cc(O)ccc1C=Nc1cc2ccccc2cc1N=Cc1ccc(O)cc1[O-] [compound 17, 4,4′-Dihydroxysalnaphen Mn(III) acetate] | Y (17) | 21.4 µM | effective in inducing cell death | – | – |
| CC(=O)[O-].COc1cccc(C=Nc2cc3ccccc3cc2N=Cc2cccc(OC)c2[O-])c1[O-].[Mn+3] [compound 19, 3,3′-Dimethoxysalnaphen Mn(III) acetate] | Y (19) | 39.7 µM | – | – | – |
| CC(=O)[O-].COc1ccc(C=Nc2cc3ccccc3cc2N=Cc2ccc(OC)cc2[O-])c([O-])c1.[Mn+3] [compound 20, 4,4′-Dimethoxysalnaphen Mn(III) acetate] | Y (20) | 20.4 µM and 20.5 µM | – | – | – |
| CC(=O)[O-].COc1ccc([O-])c(C=Nc2cc3ccccc3cc2N=Cc2cc(OC)ccc2[O-])c1.[Mn+3] [compound 21, 5,5′-Dimethoxysalnaphen Mn(III) acetate] | Y (21) | 19.3 µM | – | – | – |
| [Cl-].[Fe+3].[O-]c1ccccc1C=NCCN=Cc1ccccc1[O-] [compound 22, Fe(III)-salen chloride] | Y (22) | 22.4 µM | highly effective in killing MCF-7 cells | – | – |
| COc1ccc([O-])c(C=NCCN=Cc2cc(OC)ccc2[O-])c1.[Cl-].[Fe+3] [compound 28, 5,5′-Dimethoxysalen Fe(III) chloride] | Y (28) | 4.56 µM | highly effective in killing MCF-7 cells | more than 80% | – |
| [Cl-].[Fe+3].[O-]c1ccccc1C=Nc1ccccc1N=Cc1ccccc1[O-] [compound 29, Fe(III)-salphen.chloride] | Y (29) | 1.25 µM | – | – | – |
| [Cl-].[Fe+3].[O-]c1c(O)cccc1C=Nc1ccccc1N=Cc1cccc(O)c1[O-] [compound 30, 3,3′-Dihydroxysalphen Fe(III) chloride] | Y (30) | – | – | – | 0.33 µM |
| COc1cccc(C=Nc2ccccc2N=Cc2cccc(OC)c2[O-])c1[O-].[Cl-].[Fe+3] [compound 33, 3,3′-Dimethoxysalphen Fe(III) chloride] | Y (33) | 4.15 µM | – | – | – |
| COc1ccc(C=Nc2ccccc2N=Cc2ccc(OC)cc2[O-])c([O-])c1.[Cl-].[Fe+3] [compound 34, 4,4′-Dimethoxysalphen Fe(III) chloride] | Y (34) | – | – | – | 0.68 µM |
| COc1ccc([O-])c(C=Nc2ccccc2N=Cc2cc(OC)ccc2[O-])c1.[Cl-].[Fe+3] [compound 35, 5,5′-Dimethoxysalphen Fe(III) chloride] | Y (35) | 3.11 µM | – | – | – |
| [Cl-].[Fe+3].[O-]c1ccccc1C=Nc1cc2ccccc2cc1N=Cc1ccccc1[O-] [compound 36, Fe(III)-salnaphen chloride] | Y (36) | – | – | – | 0.54 µM |
| [Cl-].[Fe+3].[O-]c1c(O)cccc1C=Nc1cc2ccccc2cc1N=Cc1cccc(O)c1[O-] [compound 37, 3,3′-Dihydroxysalnaphen Fe(III) chloride] | Y (37) | – | – | – | 0.22 µM |
| COc1cccc(C=Nc2cc3ccccc3cc2N=Cc2cccc(OC)c2[O-])c1[O-].[Cl-].[Fe+3] [compound 40, 3,3′-Dimethoxysalnaphen Fe(III) chloride] | Y (40 | 1.5 µM | – | – | – |
| COc1ccc(C=Nc2cc3ccccc3cc2N=Cc2ccc(OC)cc2[O-])c([O-])c1.[Cl-].[Fe+3] [compound 41, 4,4′-Dimethoxysalnaphen Fe(III) chloride] | Y (41) | – | – | – | 0.53 µM |
